From US20230150960A1, “COMPOSITIONS AND METHODS OF USING CYANINE DYES TO TARGET CANCER AND MITOCHONDRIA” (Thomas Jefferson University, priority 2020, published 2023)
“Also recorded” adds a separate entry of the source. Blank lines part the entries; values can stand above or below the compound they belong to.

Assays:
[1] = system: MIA-PaCa2 cancer cells; assay: Combination of JAC-B2 or JAC-R2 with another drug, cell survival by Pico Green, BLISS/HSA plot analyses; type: cell-based
Method: (§1) We analyzed cell survival using Pico Green and determined the combinational effects through BLISS/HSA plot analyses.
MIA-PaCa2 pancreatic cancer cells were purchased from the American Type Culture Collection (ATCC, Manassas, VA, USA) and grown in normal culture media (DMEM media, 10% FBS, 1% L-glutamine, 1% Penicillin-Streptomycin) at normal conditions (37° C., 5% CO2). Cells were trypsinized and plated at 1 thousand cells per well and in 96-well plates. […] Cell viability was assessed using pico-green dsDNA measurement and IC50S were calculated using GraphPad® (GraphPad Software, San Diego, CA, USA) by employing normalized nonlinear regression models. A summary of the combined efficacy of a compound of Formula I and an additional therapeutic agent is show in Table 2.

[2] = system: ASPC1 cancer cells; assay: Combination of JAC-B2 with another drug, cell survival by Pico Green, BLISS/HSA plot analyses; type: cell-based; conditions: combined with PDDX04, 5 days, FIG. 7P
Text: as §1

[3] = system: HT29 cancer cells; assay: as above; type: cell-based; conditions: combined with Cobimetinib, 5 days, FIG. 7O
Text: as §1

[4] = Solubility of glycerol-containing formulations (post vortexing, 30 min and overnight at 18° C.); type: physicochemical; conditions: glycerol-containing formulation, compound 2 mg/mL; for solubility at 30 min / solubility: 18 °C; for solubility at 30 min: after 30 minutes incubation at 18° C.; for solubility: overnight incubation at 18° C.; for solubility at 30 s: post vortexing
Method: Tables 3A, 3B, and 3C describe solubility experiments conducted with the indicated compounds under the listed conditions. Vortexing was conducted using a Denville Vortexer 59 (Denville Scientific Inc.), at maximum speed for 30 seconds. As used herein, the term overnight refers to a period lasting at least about 12-24 hours.

[5] = Solubility of BSA-containing formulations (post vortexing, 30 min and overnight at 18° C.); type: physicochemical; conditions: BSA-containing formulation, aqueous with cosolvent or surfactant or cyclodextrin, compound 2 mg/mL; for solubility at 30 min / solubility: 18 °C; for solubility at 30 min: after 30 minutes incubation at 18° C.; for solubility: overnight incubation at 18° C.; for solubility at 30 s: post vortexing
Method: Vortexing was conducted using a Denville Vortexer 59 (Denville Scientific Inc.), at maximum speed for 30 seconds. As used herein, the term overnight refers to a period lasting at least about 12-24 hours.

[6] = combined with Azacitidine, 5 days, MIA-PaCa2, FIG. 7J (JAC-B2), FIG. 7L (JAC-R2)
[7] = combined with Decitabine, 5 days, MIA-PaCa2, FIG. 7I (JAC-B2), FIG. 7K (JAC-R2)
[8] = combined with Paclitaxel, 5 days, FIG. 7F (JAC-B2), FIG. 7M (JAC-R2)

SMILES: CCN1/C(=C/C=C/C=C/c2sc3ccccc3[n+]2CC)Sc2ccccc21 [JAC-B2, Dithiazanine Iodide]
Effect of combination ([1]; combined with 5-Fluorouracil, 5 days, FIG. 7N): Synergistic
Effect of combination ([1]; combined with Abemaciclib, 5 days, MIA-PaCa2, FIG. 7H): Synergistic
Effect of combination ([1]; combined with Adavosertib, 5 days, MIA-PaCa2, FIG. 7R): Synergistic
Effect of combination [1, 6]: Synergistic
Effect of combination ([1]; combined with Colchicine, 5 days, MIA-PaCa2, FIG. 7Q): Synergistic
Effect of combination [1, 7]: Synergistic
Effect of combination ([1]; combined with Everolimus, 5 days, MIA-PaCa2, FIG. 7E): Additive
Effect of combination ([1]; combined with Gemcitabine, 5 days, MIA-PaCa2, FIG. 7A): antagonistic response; also recorded: Antagonistic/Additive
Effect of combination ([1]; combined with Hydralazine, no figure): Antagonistic/Additive
Effect of combination ([1]; combined with Irinotecan, 5 days, MIA-PaCa2, FIG. 7C): Additive
Effect of combination ([1]; combined with Metformin, no figure): Additive
Effect of combination ([1]; combined with Methotrexate, 5 days, MIA-PaCa2, FIG. 7B): Additive
Effect of combination ([1]; combined with Olaparib, 5 days, MIA-PaCa2, FIG. 7D): antagonistic response; also recorded: Antagonistic/Additive
Effect of combination ([1]; combined with Oxaliplatin, 5 days, MIA-PaCa2, FIG. 7G): Synergistic
Effect of combination [1, 8]: Synergistic
Effect of combination ([1]; combined with VE-821, 5 days, MIA-PaCa2, FIG. 7S): Synergistic
Effect of combination [2]: Synergistic
Effect of combination [3]: Synergistic

solubility at 30 min ([4]; aqueous with cosolvent or surfactant or cyclodextrin, 10% glycerol, read-out: Solubility of glycerol-containing formulations after 30 min incubation at 18° C., 10%): < 2000 µg/mL
solubility ([4]; aqueous with cosolvent or surfactant or cyclodextrin, 10% glycerol, read-out: Solubility of glycerol-containing formulations after overnight incubation at 18° C., 10%): < 2000 µg/mL
solubility at 30 min ([4]; aqueous with cosolvent or surfactant or cyclodextrin, 20% glycerol, read-out: Solubility of glycerol-containing formulations after 30 min incubation at 18° C., 20%): < 2000 µg/mL
solubility ([4]; aqueous with cosolvent or surfactant or cyclodextrin, 20% glycerol, read-out: Solubility of glycerol-containing formulations after overnight incubation at 18° C., 20%): < 2000 µg/mL
solubility at 30 min ([4]; aqueous with cosolvent or surfactant or cyclodextrin, 30% glycerol, read-out: Solubility of glycerol-containing formulations after 30 min incubation at 18° C., 30%): < 2000 µg/mL
solubility ([4]; aqueous with cosolvent or surfactant or cyclodextrin, 30% glycerol, read-out: Solubility of glycerol-containing formulations after overnight incubation at 18° C., 30%): < 2000 µg/mL
solubility at 30 min ([4]; aqueous with cosolvent or surfactant or cyclodextrin, 40% glycerol, read-out: Solubility of glycerol-containing formulations after 30 min incubation at 18° C., 40%): < 2000 µg/mL
solubility ([4]; aqueous with cosolvent or surfactant or cyclodextrin, 40% glycerol, read-out: Solubility of glycerol-containing formulations after overnight incubation at 18° C., 40%): < 2000 µg/mL
solubility at 30 min ([4]; aqueous with cosolvent or surfactant or cyclodextrin, 50% glycerol, read-out: Solubility of glycerol-containing formulations after 30 min incubation at 18° C., 50%): < 2000 µg/mL
solubility ([4]; aqueous with cosolvent or surfactant or cyclodextrin, 50% glycerol, read-out: Solubility of glycerol-containing formulations after overnight incubation at 18° C., 50%): < 2000 µg/mL
solubility at 30 min ([4]; 0% glycerol, read-out: Solubility of glycerol-containing formulations after 30 min incubation at 18° C., 0%): < 2000 µg/mL
solubility ([4]; 0% glycerol, read-out: Solubility of glycerol-containing formulations after overnight incubation at 18° C., 0%): < 2000 µg/mL
solubility at 30 s ([4]; aqueous with cosolvent or surfactant or cyclodextrin, 10% glycerol, read-out: Solubility of glycerol-containing formulations post vortexing, 10%): < 2000 µg/mL
solubility at 30 s ([4]; aqueous with cosolvent or surfactant or cyclodextrin, 20% glycerol, read-out: Solubility of glycerol-containing formulations post vortexing, 20%): < 2000 µg/mL
solubility at 30 s ([4]; aqueous with cosolvent or surfactant or cyclodextrin, 30% glycerol, read-out: Solubility of glycerol-containing formulations post vortexing, 30%): < 2000 µg/mL
solubility at 30 s ([4]; aqueous with cosolvent or surfactant or cyclodextrin, 40% glycerol, read-out: Solubility of glycerol-containing formulations post vortexing, 40%): < 2000 µg/mL
solubility at 30 s ([4]; aqueous with cosolvent or surfactant or cyclodextrin, 50% glycerol, read-out: Solubility of glycerol-containing formulations post vortexing, 50%): < 2000 µg/mL
solubility at 30 s ([4]; 0% glycerol, read-out: Solubility of glycerol-containing formulations post vortexing, 0%): < 2000 µg/mL
solubility at 30 min ([5]; BSA 40 mg/mL, read-out: Solubility of BSA-containing formulations after 30 min incubation at 18° C., 40 mg/mL): < 2000 µg/mL
solubility ([5]; BSA 40 mg/mL, read-out: Solubility of BSA-containing formulations after overnight incubation at 18° C., 40 mg/mL): < 2000 µg/mL
solubility at 30 min ([5]; BSA 60 mg/mL, read-out: Solubility of BSA-containing formulations after 30 min incubation at 18° C., 60 mg/mL): < 2000 µg/mL
solubility ([5]; BSA 60 mg/mL, read-out: Solubility of BSA-containing formulations after overnight incubation at 18° C., 60 mg/mL): < 2000 µg/mL
solubility at 30 min ([5]; BSA 80 mg/mL, read-out: Solubility of BSA-containing formulations after 30 min incubation at 18° C., 80 mg/mL): < 2000 µg/mL
solubility ([5]; BSA 80 mg/mL, read-out: Solubility of BSA-containing formulations after overnight incubation at 18° C., 80 mg/mL): < 2000 µg/mL
solubility at 30 min ([5]; BSA 100 mg/mL, read-out: Solubility of BSA-containing formulations after 30 min incubation at 18° C., 100 mg/mL): < 2000 µg/mL
solubility ([5]; BSA 100 mg/mL, read-out: Solubility of BSA-containing formulations after overnight incubation at 18° C., 100 mg/mL): < 2000 µg/mL
solubility at 30 s ([5]; BSA 40 mg/mL, read-out: Solubility of BSA-containing formulations post vortexing, 40 mg/mL): < 2000 µg/mL
solubility at 30 s ([5]; BSA 60 mg/mL, read-out: Solubility of BSA-containing formulations post vortexing, 60 mg/mL): < 2000 µg/mL
solubility at 30 s ([5]; BSA 80 mg/mL, read-out: Solubility of BSA-containing formulations post vortexing, 80 mg/mL): < 2000 µg/mL
solubility at 30 s ([5]; BSA 100 mg/mL, read-out: Solubility of BSA-containing formulations post vortexing, 100 mg/mL): < 2000 µg/mL
SMILES: CCN1/C(=C/C(C)=C/c2sc3ccccc3[n+]2CC)Sc2ccccc21 [JAC-B2.5, 3,3′-Diethyl-9-methylthiacarbocyanine iodide]

SMILES: CCN1/C(=C/C=C/C=C/c2oc3ccccc3[n+]2CC)Oc2ccccc21 [JAC-R2, 3′,3′-Diethyloxadicarbocyanine iodide]
Effect of combination [1, 6]: Synergistic
Effect of combination [1, 7]: Synergistic
Effect of combination [1, 8]: Synergistic
